Laboratory results from patent publication US6756382B2, “Amide substituted imidazoquinolines” (3M Innovative Properties Company, priority 1999, dated 2004).

How the values were obtained:
[1] = system: interferon (α); experiment: Cytokine induction in human cells: interferon secreted by PBMCs, ELISA; format: cell-based; settings: PBMC, incubated 18 to 24 hours, interferon determined by ELISA, read-out: Lowest Effective Concentration (μM) Interferon
Outline: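 Human donor PBMCs at 1.5-2×10^6 cells/mL final in RPMI with 10% FBS, exposed to serially diluted compound (≤1% DMSO) for 18–24 h at 37 °C, 5% CO2. Supernatant interferon (α) measured by ELISA; value is lowest concentration inducing interferon.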

[2] = system: tumor necrosis factor (α); experiment: Cytokine induction in human cells: tumor necrosis factor (α) secreted by PBMCs, ELISA; format: cell-based; settings: PBMC, incubated 18 to 24 hours, TNF determined by ELISA, read-out: Lowest Effective Concentration (μM) Tumor Necrosis Factor
Outline: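 Human donor PBMCs at final 1.5-2×10^6 cells/mL in RPMI with 10% FBS incubated 18 to 24 h at 37° C. with serially diluted compound, DMSO at most 1% final. Supernatant TNF-α measured by ELISA; value is the lowest concentration inducing TNF.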

| Structure (SMILES) | melting point | minimal effective concentration [1] [µM] | minimal effective concentration [2] [µM] |
| --- | --- | --- | --- |
| Nc1nc2ccccc2c2c1ncn2CCCCNC(=O)c1ccccc1 [Example 1, N^1-[4-(4-Amino-1H-imidazo[4,5-c]quinolin-1-yl)butyl]benzamide] | 210 to 212 °C | 0.37 | 10 |
| CCCc1nc2c(N)nc3ccccc3c2n1CCCCNC(=O)c1ccccc1 [Example 3, N^1-[4-(4-Amino-2-propyl-1H-imidazo[4,5-c]quinolin-1-yl)butyl]benzamide] | 173 to 174 °C | 0.37 | 1.11 |
| Nc1nc2ccccc2c2c1ncn2CCCCNC(=O)c1ccc(CCl)cc1 [Example 7, N^1-[4-(4-Amino-1H-imidazo[4,5-c]quinolin-1-yl)butyl]-4-(chloromethyl)benzamide] | 240 to 300 °C (dec.) | 1.11 | > 30 |
| Nc1nc2ccccc2c2c1ncn2CCCCNC(=O)c1ccc(Cn2c(N3CCCC3)nc3ccccc32)cc1 [Example 8, N^1-[4-(4-Amino-1H-imidazo[4,5-c]quinolin-1-yl)butyl]-4-[(2-tetrahydro-1H -1-pyrrolyl-1H-benzo[d]imidazol-1-yl)methyl]benzamide] | 150 to 153 °C | 0.04 | > 30 |
| Cc1nc2c(N)nc3ccccc3c2n1CCCCCNC(=O)c1ccccc1 [Example 9, N^1-[5-(4-Amino-2-methyl-1H-imidazo[4,5-c]quinolin-1-yl)pentyl]benzamide] | 110 to 120 °C | 0.37 | 3.33 |
| Nc1nc2ccccc2c2c1ncn2CCCCNC(=O)c1ccc(N2CCOCC2)nc1 [Example 12, N^3-[4-(4-Amino-1H-imidazo[4,5-c]quinolin-1-yl)butyl]-6-morpholinonicotinamide] | 160 to 170 °C (dec.) | 3.33 | > 30 |
| Nc1nc2ccccc2c2c1ncn2CCNC(=O)c1ccccc1 [Example 13, N^1-[2-(4-Amino-1H-imidazo[4,5-c]quinolin-1-yl)ethyl]benzamide] | 295 °C | 1.11 | 3.33 |
| Nc1nc2ccccc2c2c1ncn2CCCCNC(=O)c1ccccc1Oc1ccccc1 [Example 14, N^1-[4-(4-Amino-1H-imidazo[4,5-c]quinolin-1-yl)butyl]-2-phenoxybenzamide] | 93 to 94 °C | 3.33 | > 30 |
| Nc1nc2ccccc2c2c1ncn2CCCCNC(=O)c1cccc(C(=O)c2ccccc2)c1 [Example 15, N^1-[4-(4-Amino-1H-imidazo[4,5-c]quinolin-1-yl)butyl]-3-benzoylbenzamide] | 103 to 105 °C | 3.33 | > 30 |
| Nc1nc2ccccc2c2c1ncn2CCCCNC(=O)CCc1ccccc1 [Example 16, N^1-[4-(4-Amino-1H-imidazo[4,5-c]quinolin-1-yl)butyl]-3-phenylpropanamide] | 148 to 150 °C | 1.11 | 30 |
| Nc1nc2ccccc2c2c1ncn2CCNC(=O)CCc1ccccc1 [Example 17, N^1-[2-(4-Amino-1H-imidazo[4,5-c]quinolin-1-yl)ethyl]-3-phenylpropanamide] | 254 to 256 °C | 3.33 | 10 |
| Nc1nc2ccccc2c2c1ncn2CCCCNC(=O)COc1ccc(C(=O)c2ccccc2)cc1 [Example 18, N^1-[4-(4-Amino-1H-imidazo[4,5-c]quinolin-1-yl)butyl]-2-(4-benzoylphenoxy)acetamide] | 73 to 98 °C | 3.33 | > 30 |
| Nc1nc2ccccc2c2c1ncn2CCCCNC(=O)CCCCOc1ccc2[nH]c(=O)[nH]c2c1 [Example 19, N-[4-Amino-1H-imidazo[4,5-c]quinolin-1-yl]butyl-5-[(2-oxo-2,3-dihydro-1H-benzo[d]imidazol-5-yl)oxy]pentamide] | 150 to 157 °C | 10 | > 30 |
| Nc1nc2ccccc2c2c1ncn2CCCCNC(=O)c1ccc(C(=O)c2ccccc2)cc1 [Example 20, N^1-[4-(4-Amino-1H-imidazo[4,5-c]quinolin-1-yl)butyl]-4-benzoylbenzamide] | 159 to 161 °C | 3.33 | > 30 |
| Nc1nc2ccccc2c2c1ncn2CCCCNC(=O)c1ccc2ncccc2c1 [Example 21, N^6-[4-(4-Amino-1H-imidazo[4,5-c]quinolin-1-yl)butyl]-6-quinolinecarboxamide] | 122 to 127 °C | 0.12 | 1.11 |
| Cc1nc2c(N)nc3ccccc3c2n1CCCNC(=O)c1ccccc1 [Example 22, N^1-[3-(4-Amino-2-methyl-1H-imidazo[4,5-c]quinolin-1-yl)propyl]benzamide] | 230 to 231.4 °C | 0.37 | 10 |
| Nc1nc2ccccc2c2c1ncn2CCCCCCNC(=O)c1ccccc1 [Example 23, N^1-[6-(4-Amino-1H-imidazo[4,5-c]quinolin-1-yl)hexyl]benzamide] | 146 to 155 °C | 1.11 | > 30 |

Second part, led by results:

| melting point | Structure (SMILES) | minimal effective concentration [1] [µM] | minimal effective concentration [2] [µM] |
| --- | --- | --- | --- |
| 77 °C | Nc1nc2ccccc2c2c1ncn2CCCCNC(=O)[C@H]1C[C@@H]1c1ccccc1 (relative stereo) [Example 37, N^1-[4-(4-Amino-1H-imidazo[4,5-c]quinolin-1-yl)butyl]-(trans)-2-phenylcyclopropane-1-carboxamide] | 0.37 | > 30 |
| 214 to 215 °C | CCCCc1nc2c(N)nc3ccccc3c2n1CCCCNC(=O)CCCCC1SCC2NC(=O)NC21 (stereo not shown) [Example 24, N^1-[4-(4-Amino-2-butyl-1H-imidazo[4,5-c]quinolin-1-yl)butyl]-5-(2-oxoperhydrothieno[3,4-d]imidazol-4-yl)pentanamide] | 0.12 | 3.33 |
| 81.1 to 83.9 °C | Nc1nc2ccccc2c2c1nc(-c1ccccc1)n2CCCCNC(=O)c1ccc2ccccc2n1 [Example 67, N^2-[4-(4-Amino-2-phenyl-1H-imidazo[4,5-c]quinolin-1-yl)butyl]-2-quinolinecarboxamide] | – | – |
| 186.2 to 186.7 °C | Nc1nc2ccccc2c2c1nc(CCCOc1ccccc1)n2CCCNC(=O)c1ccc(Br)cc1 [Example 193, N-{3-[4-amino-2-(3-phenoxypropyl)-1H-imidazo[4,5-c]quinolin-1-yl]propyl}-4-bromobenzamide] | – | – |
| 167.8 to 169.6 °C | COCCc1nc2c(N)nc3c(c2n1CCCNC(=O)c1ccccc1)CCCC3 [Example 195, N-{3-[4-amino-2-(2-methoxyethyl)-6,7,8,9-tetrahydro-1H-imidazo[4,5-c]quinolin-1-yl]propyl}benzamide] | – | – |
| 178.6 to 179.5 °C | CCc1nc2c(N)nc3ccccc3c2n1CCCCNC(=O)C1CCCC1 [Example 197, N-[4-(4-amino-2-ethyl-1H-imidazo[4,5-c]quinolin-1-yl)butyl]cyclopentanecarboxamide] | – | – |
| 191.6 to 192.6 °C | Cc1nc2c(N)nc3ccccc3c2n1CCCCNC(=O)C1CCCCC1 [Example 198, N-[4-(4-amino-2-methyl-1H-imidazo[4,5-c]quinolin-1-yl)butyl]cyclohexanecarboxamide] | – | – |
| 155.4 to 156.3 °C | CCc1nc2c(N)nc3ccccc3c2n1CCCCNC(=O)C(C)C [Example 199, N-[4-(4-amino-2-ethyl-1H-imidazo[4,5-c]quinolin-1-yl)butyl]-2-methylpropanamide] | – | – |
| 147.7 to 148.8 °C | CCCC(=O)NCCCCn1c(CC)nc2c(N)nc3ccccc3c21 [Example 200, N-[4-(4-amino-2-ethyl-1H-imidazo[4,5-c]quinolin-1-yl)butyl]butanamide] | – | – |
| 168.6 to 169.8 °C | Cc1nc2c(N)nc3ccccc3c2n1CCCCNC(=O)C1CCCC1 [Example 201, N-[4-(4-amino-2-methyl-1H-imidazo[4,5-c]quinolin-1-yl)butyl]cyclopentanecarboxamide] | – | – |
| 159.7 to 160.7 °C | Cc1nc2c(N)nc3ccccc3c2n1CCCCNC(=O)C(C)C [Example 202, N-[4-(4-amino-2-methyl-1H-imidazo[4,5-c]quinolin-1-yl)butyl]-2-methylpropanamide] | – | – |
| 169.4 to 170.5 °C | CCCC(=O)NCCCCn1c(C)nc2c(N)nc3ccccc3c21 [Example 203, N-[4-(4-amino-2-methyl-1H-imidazo[4,5-c]quinolin-1-yl)butyl]butanamide] | – | – |
| 234.4 to 235.4 °C | Cc1nc2c(N)nc3ccccc3c2n1CCCNC(=O)C1CCCCC1 [Example 205, N-[3-(4-amino-2-methyl-1H-imidazo[4,5-c]quinolin-1-yl)propyl]cyclohexanecarboxamide] | – | – |
| 239 to 240.1 °C | Cc1nc2c(N)nc3ccccc3c2n1CCCNC(=O)C(C)C [Example 207, N-[3-(4-amino-2-methyl-1H-imidazo[4,5-c]quinolin-1-yl)propyl]-2-methylpropanamide] | – | – |
| 221.8 to 223.3 °C | CCCC(=O)NCCCn1c(C)nc2c(N)nc3ccccc3c21 [Example 208, N-[3-(4-amino-2-methyl-1H-imidazo[4,5-c]quinolin-1-yl)propyl]butanamide] | – | – |
